Article PMC7456963, “HPLC-Based Activity Profiling for Antiprotozoal Compounds in Croton gratissimus and Cuscuta hyalina” (Frontiers in Pharmacology, 2020)
“And” between values parts separate entries of the source, which are not always exact repeats. Equal values may be shown once. Read-outs that look alike come from different tables or passages of the source.

Assays:
[1] = tested on: P. falciparum NF54 erythrocytic stages; test: Activity against Plasmodium falciparum (3H-hypoxanthine incorporation); type: cell-based; conditions: for IC50: read-out: IC50 P. falciparum; for Selectivity index (SI): IC50 in L6 cells divided by IC50 in P. falciparum: L6 cells vs P. falciparum NF54
Description: In vitro activity against the erythrocytic stages of P. falciparum was determined using a ^3H-hypoxanthine incorporation assay ([Desjardins et al., 1979]), using the drug sensitive NF54 strain ([Ponnudurai et al., 1981]). Compounds were dissolved in DMSO at 10 mg/ml and further diluted in medium before addition to parasite cultures incubated in RPMI 1640 medium without hypoxanthine, supplemented with HEPES (5.94 g/L), NaHCO3 (2.1 g/L), neomycin (100 U/ml), Albumax^R (5 g/L), and washed human red cells A^+ at 2.5% haematocrit (0.3% parasitemia). Serial drug dilutions of 11 three-fold dilution steps covering a range from 100 to 0.002 μg/ml were prepared. The 96-well plates were incubated in a humidified atmosphere at 37°C; 4% CO2, 3% O2, 93% N2. After 48 h, 50 μl of ^3H-hypoxanthine (=0.5 μCi) was added to each well of the plate. The plates were incubated for a further 24 h under the same conditions. The plates were then harvested with a Betaplate™ cell harvester (Wallac, Zurich, Switzerland), the red blood cells transferred onto a glass fibre filter, and lysed with distilled water. The dried filters were inserted into a plastic foil with 10 ml of scintillation fluid and counted in a Betaplate™ liquid scintillation counter (Wallac, Zurich, Switzerland). IC50 values were calculated from sigmoidal inhibition curves by linear regression using Microsoft Excel. Chloroquine (Sigma C6628) was used as control. Assays were performed in two independent replicates at least.

[2] = tested on: L. donovani strain MHOM/ET/67/L82 axenic amastigotes; test: Activity against Leishmania donovani axenic amastigotes (resazurin); type: cell-based; conditions: for Selectivity index (SI): IC50 in L6 cells divided by IC50 in L. donovani axenic amastigotes: L6 cells vs axenic L. donovani; for IC50: MHOM/ET/67/L82, pH 5.4, 70 h + 2 h resazurin, mean ± absolute deviation, at least two replicates, read-out: IC50 L. donovani Axenic
Description: Amastigotes of L. donovani strain MHOM/ET/67/L82 were grown under an atmosphere of 5% CO2 in air in axenic culture at 37°C in SM medium ([Cunningham, 1977]) at pH 5.4 supplemented with 10% heat-inactivated fetal bovine serum. 50 µL of culture medium was added in the wells of a 96-well plate and serial drug dilutions of eleven three-fold dilution steps covering a final range from 100 to 0.002 μg/ml were prepared. 50 µL culture medium with 2 × 10^5 amastigotes from axenic culture were added to each well. After 70 h of incubation the plates were inspected under an inverted microscope to assure growth of the controls and sterile conditions. 10 μl of resazurin (12.5 mg resazurin dissolved in 100 ml distilled water) were added to each well and the plates incubated for another 2 h. Then the plates were read with a Spectramax Gemini XS microplate fluorometer (Molecular Devices Cooperation, Sunnyvale, CA, USA) using an excitation wavelength of 536 nm and an emission wavelength of 588 nm. Data were analyzed using the software Softmax Pro (Molecular Devices Cooperation, Sunnyvale, CA, USA). Decrease of fluorescence (= inhibition) was expressed as percentage of the fluorescence of untreated control cultures and plotted against the drug concentrations. From the sigmoidal inhibition curves the IC50 values were calculated. Miltefosine was used as positive control drug. Assays were performed in two independent replicates at least.

[3] = Cytotoxicity to macrophages determined in parallel to the intramacrophage assay; type: cell-based; conditions: CDI, surviving, uninfected mouse peritoneal macrophages
Description: (§1) Macrophages were isolated from the mouse (CDI) peritoneal cavity ([Zhang et al., 2008]) using 2% starch solution as eliciting agent injected 2 day prior to cell harvest. Animal work was carried out according to the rules and regulations for the protection of animal rights (“Tierschutzverordnung”) of the Swiss “Bundesamt für Veterinärwesen” (License number 2374). Mouse peritoneal macrophages (4 × 10^4 in 100 µL RPMI 1640 medium with 10% heat-inactivated FBS) were seeded into wells of a 96-well plate. After 24 h, 2 × 10^5 amastigote L. donovani in 100 µL were added. The amastigotes were taken from an axenic amastigote culture grown at pH 5.4. The medium containing free amastigote forms was removed after 24 h and replaced with fresh medium. The washing step was repeated and afterward the serial drug dilution was prepared with at least 6 dilution steps. Compounds were dissolved in DMSO at 10 mg/ml and further diluted in medium. After 96 h of incubation at 37°C under a 5% CO2 atmosphere, the medium was removed, and cells were fixed by adding 50 µl 4% formaldehyde solution followed by a staining with a 5 µM DRAQ5 solution. Plates were imaged in ImageXpress XLS (MD) microscope using a 20× air objective (635 nm excitation: 690/50 emission). 9 images were collected per well. Automated image analysis was performed with a script developed on Meta Xpress Software (MD). Three outputs were provided for each well: i) number of host cell nuclei; ii) numbers of infected and non-infected host cells; iii) number of parasite nuclei per infected host cell. The IC50 values were calculated based on the infection rate and the numbers of intracellular amastigotes. The cytotoxicity to macrophages was determined in parallel, and IC50 values were calculated based on the numbers of surviving, uninfected macrophages. Miltefosine was used as control. Assays were performed in two independent replicates at least.

[4] = tested on: T. b. rhodesiense STIB 900 bloodstream forms; test: Activity against Trypanosoma brucei rhodesiense STIB900 (resazurin); type: cell-based; conditions: for Selectivity index (SI): IC50 in L6 cells divided by IC50 in T. b. rhodesiense: L6 cells vs T. b. rhodesiense STIB 900; for IC50: STIB 900 bloodstream forms, 70 h + resazurin, mean ± absolute deviation
Description: The stock was originally isolated from a patient and adapted to axenic culture conditions after several mouse passages and cloned. Minimum Essential Medium (50 µl) supplemented with 25 mM HEPES, 1 g/L additional glucose, 1% MEM non-essential amino acids (100×), 0.2 mM 2-mercaptoethanol, 1 mM Na-pyruvate ([Baltz et al., 1985]) and 15% heat inactivated horse serum was added to each well of a 96-well microtiter plate. Serial drug dilutions of eleven 3-fold dilution steps covering a range from 100 to 0.002 μg/ml were prepared. Then 4 × 10^3 bloodstream forms of T. b. rhodesiense STIB 900 in 50 µL were added to each well and the plate incubated for 70 h at 37°C and under a 5% CO2 atmosphere. 10 µL resazurin solution (resazurin, 12.5 mg in 100 ml double-distilled water) was then added to each well and incubation continued for a further 2–4 h ([Räz et al., 1997]). Plates were read with a Spectramax Gemini XS microplate fluorometer (Molecular Devices Cooperation, Sunnyvale, CA, USA) using an excitation wavelength of 536 nm and an emission wavelength of 588 nm. […] Melarsoprol (Arsobal Sanofi-Aventis, received from WHO) was used as control. Assays were performed in two independent replicates at least.

[5] = tested on: L. donovani amastigotes in mouse peritoneal macrophages; test: Activity against Leishmania donovani intramacrophage amastigotes (high-content imaging); type: cell-based; conditions: amastigotes in mouse peritoneal macrophages, 96 h, read-out: IC50 L. donovani Intramacrophage
Description: as §1

[6] = In vitro cytotoxicity with L-6 cells (resazurin); type: cell-based, rat; conditions: rat, L6 cells, 70 h + 2 h resazurin, mean ± absolute deviation
Description: Assays were performed in 96-well microtiter plates, each well containing 100 µl of RPMI 1640 medium supplemented with 1% L-glutamine (200 mM) and 10% fetal bovine serum, and 4000 L-6 cells (a primary cell line derived from rat skeletal myoblasts) ([Ahmed et al., 1994]). Serial drug dilutions of 11 three-fold dilution steps covering a range from 100 to 0.002 μg/ml were prepared 24 h post seeding L-6 cells. The plates were incubated for 70 h and inspected under an inverted microscope to assure growth of the controls and sterile conditions. 10 µl of resazurin was then added to each well and the plates incubated for another 2 h. Then the plates were read with a Spectramax Gemini XS microplate fluorometer (Molecular Devices Cooperation, Sunnyvale, CA, USA) using an excitation wavelength of 536 nm and an emission wavelength of 588 nm. The IC50 values were calculated by linear regression and four-parameter logistic regression from the sigmoidal dose inhibition curves using SoftmaxPro software (Molecular Devices Cooperation, Sunnyvale, CA, USA). Podophyllotoxin (Sigma P4405) was used as positive control. All assays were performed in two independent replicates at least. Activities of all compounds were expressed in µM using the formula: […]

[7] = Leishmania donovani, pH 5.4, axenic amastigotes
[8] = Plasmodium falciparum, NF54, 72 h, NF54 drug sensitive strain, erythrocytic stages, 72 h, mean ± absolute deviation
[9] = Leishmania donovani, Peritoneal macrophage
[10] = NF54 drug sensitive strain, erythrocytic stages, 72 h, mean ± absolute deviation

| IC50 ([1]; Plasmodium falciparum, NF54, 72 h) | IC50 [2, 7] | IC50 [1, 8] | IC50 ([4]; Trypanosoma brucei, 70 h) | IC50 [5, 9] | IC50 [1, 10] | Compound | Selectivity index (SI): IC50 in L6 cells divided by IC50 in L. donovani axenic amastigotes [2] | Selectivity index (SI): IC50 in L6 cells divided by IC50 in P. falciparum [1] | IC50 at 96 h [3] | Selectivity index (SI): IC50 in L6 cells divided by IC50 in T. b. rhodesiense [4] | IC50 at 70 h [6] | IC50 at 70 h ([6]; L-6 cells (rat skeletal myoblasts)) | IC50 P. falciparum [1, 10] | IC50 ([2]; axenic amastigotes) | IC50 [4] | IC50 [5] |
| --- | --- | --- | --- | --- | --- | --- | --- | --- | --- | --- | --- | --- | --- | --- | --- | --- |
| 0.01 ± 0.002 µM |  |  |  |  |  | CCN(CC)CCCC(C)Nc1ccnc2cc(Cl)ccc12 (stereo not shown) [Chloroquine, reference compound] |  |  |  |  |  |  |  |  |  |  |
|  | 8.2 ± 1.6 µM | 7 to 8 µM | 11.2 ± 0.2 µM | > 95.9 µM | 7.8 ± 0.9 µM | COc1cc(O)c2c(=O)c(OC)c(-c3ccc(OC)c(O)c3)oc2c1 [Compound 2, Ayanin] | 12.2 | 12.9 | 128 ± 3.5 µM | 8.9 |  |  |  |  |  |  |
|  | 41.8 ± 9.3 µM | 73.2 ± 5.9 µM |  | > 121 µM |  | O=C1C[C@@H](c2ccc(O)cc2)Oc2cc(O)cc(O)c21 [Compound 4, Naringenin] | 5.6 | 3.2 | 333 ± 18.2 µM | 1.3 |  | 233 ± 36.9 µM |  |  |  |  |
|  | 4.5 ± 0.3 µM | 7 to 8 µM | 2.4 ± 0.5 µM | > 66.7 µM | 7.3 ± 0.6 µM | COc1cc(O)c2c(=O)c(OC)c(-c3ccc(O)c(O)c3)oc2c1 [Compound 6, Quercetin-3,7-dimethylether] | 12.3 | 7.6 | 102 ± 49.7 µM | 23.2 |  |  |  |  |  |  |
|  | 18.9 ± 2.6 µM | ~20 µM | 37.5 ± 6.1 µM | > 84.2 µM | 16.3 ± 2.7 µM | CC(=O)O[C@H]1[C@H]2c3c(ccc4c(=O)cc(-c5ccccc5)oc34)O[C@H]2OC1(C)C [Compound 12, (-)-(3′′S,4′′R,5′′S)-Pseudosemiglabrin] | 4.1 | 4.8 | 145 ± 10.5 µM | 2.1 |  |  |  |  |  |  |
|  | 20.8 ± 1.7 µM | 53.1 ± 7.7 µM | 36.4 ± 8.7 µM | > 115 µM |  | O=c1c(O)c(-c2ccc(O)cc2)oc2cc(O)cc(O)c12 [Compound 13, Kaempferol] | 5.3 | 2.1 | 151 ± 18.8 µM | 3.1 |  |  |  |  |  |  |
|  | 0.5 ± 0.2 µM |  |  | 6.6 ± 0.3 µM |  | CCCCCCCCCCCCCCCCOP(=O)([O-])OCC[N+](C)(C)C [Miltefosine, reference compound] |  |  | > 24.1 µM |  |  |  |  |  |  |  |
|  |  |  |  |  |  | COc1cc([C@@H]2c3cc4c(cc3[C@H](O)[C@H]3COC(=O)[C@H]23)OCO4)cc(OC)c1OC [Podophyllotoxin, reference compound] |  |  |  |  | 0.03 ± 0.005 µM |  |  |  |  |  |

| Compound | IC50 ([1]; Plasmodium falciparum, NF54, 72 h) | IC50 [2, 7] | IC50 [1, 8] | IC50 ([4]; Trypanosoma brucei, 70 h) | IC50 [5, 9] | IC50 [1, 10] | Selectivity index (SI): IC50 in L6 cells divided by IC50 in L. donovani axenic amastigotes [2] | Selectivity index (SI): IC50 in L6 cells divided by IC50 in P. falciparum [1] | IC50 at 96 h [3] | Selectivity index (SI): IC50 in L6 cells divided by IC50 in T. b. rhodesiense [4] | IC50 at 70 h [6] | IC50 at 70 h ([6]; L-6 cells (rat skeletal myoblasts)) | IC50 P. falciparum [1, 10] | IC50 ([2]; axenic amastigotes) | IC50 [4] | IC50 [5] |
| --- | --- | --- | --- | --- | --- | --- | --- | --- | --- | --- | --- | --- | --- | --- | --- | --- |
| COc1ccc(-c2oc3cc(O)cc(O)c3c(=O)c2OC)cc1OC [Compound 1, Quercetin-3,3′,4′-trimethylether] |  | 15 to 22 µM | 42.1 ± 12.5 µM | 55.1 ± 13.2 µM | > 79.9 µM |  | 9.8 | 4.4 | 154 ± 19.3 µM | 3.4 |  |  |  |  |  |  |
| COc1cc(O)c2c(=O)c(OC)c(-c3ccc(OC)c(OC)c3)oc2c1 [Compound 3, Retusin] |  | 34.1 ± 4.7 µM | 23.4 ± 3.8 µM | > 80 µM | > 186 µM |  | 6.3 | 9.2 | 173 µM | 2.6 | 215 ± 4.7 µM |  |  |  |  |  |
| COc1cc(C(=O)O)ccc1O [Compound 7, 3-Methoxy-4-hydroxybenzoic acid] |  | 153 ± 45.5 µM | 138 ± 12.2 µM | 38.6 ± 5.9 µM | > 595 µM |  |  |  | > 500 µM |  | 595 µM |  | least active |  |  |  |
| (+)-(7S,7′S,8R,8′R)-Pinoresinol [Compound 10] |  |  |  |  |  | > 140 µM | 1.6 |  |  | 2.1 |  |  | least active | > 150 µM and 151 µM | 116.8 ± 0.3 µM | > 279 µM |
